Reference: US20210238173A1, “MITOGEN-ACTIVATED PROTEIN KINASE KINASE 7 INHIBITORS” (Yeda Research and Development Co. Ltd., priority 2018, published 2021)
Values joined by “and” are separate entries in the source; they are usually repeats but may differ in a detail not shown here. Identical values can stand only once.

Key:
MKK7 = target: T1, MKK7 (Homo sapiens, UniProt O14733); assay: In vitro kinase activity assay for MKK7 (Nanosyn); format: biochemical; details: read-out: MKK7 IC50 in vitro
T1 construct: purchased Nanosyn (contract assay)
T1 sequence (O14733 1-419): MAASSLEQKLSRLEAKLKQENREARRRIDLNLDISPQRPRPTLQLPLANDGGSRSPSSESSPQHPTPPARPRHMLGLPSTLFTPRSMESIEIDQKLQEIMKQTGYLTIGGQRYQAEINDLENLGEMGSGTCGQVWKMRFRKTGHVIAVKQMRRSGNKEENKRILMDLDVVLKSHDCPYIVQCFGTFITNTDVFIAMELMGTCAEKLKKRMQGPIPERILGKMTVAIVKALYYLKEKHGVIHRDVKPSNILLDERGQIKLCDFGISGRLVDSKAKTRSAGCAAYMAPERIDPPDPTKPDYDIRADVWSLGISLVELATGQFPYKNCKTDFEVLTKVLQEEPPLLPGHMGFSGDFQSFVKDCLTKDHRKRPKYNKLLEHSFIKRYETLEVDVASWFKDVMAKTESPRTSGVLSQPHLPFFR
Method: Based on visual inspection of the top 500 predictions, 10 compounds were selected for synthesis and testing (see, Table 1). The “Docking rank” is given in its respective run, whereas four virtual libraries of acrylamides were docked separately, based on the amine precursor for the acrylamide (primary or secondary aliphatic amines, primary or secondary aromatic amines). In vitro kinase activity assay was carried out by Nanosyn, as described below.
In Vitro Activity Assays for MKK7 or MKK4 (Carried by Nanosyn):
Exemplary test compounds, according to some embodiments of the present invention, were diluted in DMSO to a final concentration that ranged from 10 μM to 0.0565 nM, while final concentration of DMSO in all assays was kept at 1%. Reference compound, Staurosporine, was tested in a similar manner. […] After incubation, activity of now activated JNK1 was tested in the presence of 30 μM ATP ATP for 17 h (MKK7) or 4 h (MKK4).

[1] = Metabolic stability in mouse liver microsomes; format: in vitro ADME; details: for half-life: mouse, liver microsomes
From the text: (§1) A reference compound, REF1250, was used in this study: […]

[2] = Metabolic stability in rat liver microsomes; format: in vitro ADME; details: for half-life: rat, liver microsomes
From the text: as §1

pJNK in HEK293 cells = assay: In-cell western (ICW) pJNK inhibition in HEK293; format: cell-based; details: Homo sapiens, HEK293, HEK293, ICW, 2 h pre-incubation, sorbitol stimulation
Method: (§2) HEK293, Beas2B and 3T3 cells were plated 24 hours before procedure on 384 well clear bottom black flat plates (Corning) pre-coated with Fibronectin (Sigma) diluted in PBS to a concentration of 5 μg/ml 45 minutes prior to cells introduction. Cells were plated using Multidrop™ Combi reagent dispenser (Thermo Fisher Scientific). Compound, reagents and antibody dispensing as well as washes were performed with a CyBio liquid handler (Analytik). Cells were pre-incubated with a small molecule or up to 1% DMSO for 2 h before fixation. HEK293, 3T3 or Beas2B cells were treated with 0.6M/0.2M/0.2M D-Sorbitol/PBS (Sigma) for 20/40/40 min. respectively, before fixation. Media was removed and wells were immediately fixed with 150 μl per well of 3.7% formaldehyde/PBS fixing solution for 20 min. Formaldehyde was then aspired and cells were permeabilized with 150 μl of 0.5% Triton x-100/PBS solution for 10 min. After aspiration cells were washed with ice-cold methanol and stored at −20° C., for 10 min. Methanol was aspired and cells were blocked with 150 μl blocking buffer (LICOR) for 90 min. Primary antibody Phospho-SAPK/JNK T183/Y185 (CST; 9251S) was diluted 1:1000 in blocking buffer and was applied 50 μl per well, except control wells to which only blocking buffer was applied, O.N. (16 h) at 4° C. with mild shaking. Primary antibody was aspired, wells were washed with 150 μl 0.1% Tween20/PBS (Sigma) washing solution three times for 7 min. IRDye® 800CW Goat anti-Rabbit IgG Secondary antibody (LICOR) was then diluted 1:1200 in blocking buffer with 50 μl applied per well on control wells only (no CellTag control), then CellTag700 (1:2000) was added to the solution and 50 μl were added to all experiment wells, for 1 h at room temperature. Wells were aspired and washed again with 150 μl 0.1% Tween20/PBS (Sigma) washing solution three times for 7 min. plate was dried and scanned with Odyssey CLx imaging system at 700 nm and 800 nm (Licor). Wells signals were analyzed with Odyssey software. The signal was normalized by the CellTag700 signal.
(§3) To rapidly assess the cellular activity (EC50) with full dose response curves of the MKK7 covalent inhibitors, according to some embodiments of the present invention, an in-cell western assay was adapted to a 384 well plate format over traditional western blot, and monitored phospho-JNK (pJNK) levels in response to osmotic shock. We first characterized the dynamics of pJNK in response to sorbitol. Sufficient dynamic range for pJNK is achieved at 20 minutes in HEK293 cells and at 40 minutes in 3T3 and Beas2B cells. The compound's activity was assessed by pre-treating cells with either compound or DMSO for 2 hours, followed by Sorbitol stimulation. The response of pJNK, and its substrates, pc-Jun and pATF2, was measured, as well as pP38, which is a substrate of MKK4 but not MKK7, and pERK in HEK293 cells, and the results are presented in Table 5 below.

[3] = Metabolic stability in monkey liver microsomes; format: in vitro ADME
From the text: as §1

[4] = Metabolic stability in human liver microsomes; format: in vitro ADME; details: for half-life: human, liver microsomes
From the text: as §1

[5] = Metabolic stability in dog liver microsomes; format: in vitro ADME; details: for half-life: dog, liver microsomes
From the text: as §1

pJNK in 3T3 WT cells = assay: In-cell western (ICW) pJNK inhibition in 3T3 WT; format: cell-based; details: for EC50: 3T3 WT, ICW, 2 h pre-incubation, sorbitol stimulation
Method: as §2, §3
Wildtype 3T3 cells, 3T3 MKK7 double knock-out (MKK7^−/−) cells and MKK4/7 double knockouts (MKK4/7^−/−) were used to validate on target activity of the MKK7 covalent inhibitors presented herein.

| Structure (SMILES) | IC50 (MKK7) | % remaining @ 40 min [1] | half-life [1] | % remaining @ 40 min [2] | half-life [2] | % remaining @ 40 min [3] | % remaining @ 40 min [4] | half-life [4] | % remaining @ 40 min [5] | EC50 (pJNK in HEK293 cells) | also measured |
| --- | --- | --- | --- | --- | --- | --- | --- | --- | --- | --- | --- |
| C=CC(=O)N1CCN(CC2=NC(C)N=N2)CC1 (centres unmarked) [GO10] | > 10000 nM | – | – | – | – | – | – | – | – | – | – |
| C=CC(=O)NCC1CCCN(c2cc(NC)ncn2)C1 (centres unmarked) [GO8] | > 10000 nM | – | – | – | – | – | – | – | – | – | – |
| C=CC(=O)N1CCC(c2c[nH]c3ncccc23)CC1 [GO6] | > 10000 nM | – | – | – | – | – | – | – | – | – | – |
| C=CC(=O)NCC1CCCN1c1cc(NC)ncn1 (centres unmarked) [GO9] | > 10000 nM | – | – | – | – | – | – | – | – | – | – |
| C=CC(=O)N1CCOC(c2nc(CCC)n[nH]2)C1 (centres unmarked) [GO14] | > 10000 nM | – | – | – | – | – | – | – | – | – | – |
| C=CC(=O)Nc1cc(C(=O)O)cc(-c2n[nH]c3ccccc23)c1 [PCM476] | – | 100% | – | 61% | – | 100% | 100% | – | 100% | – | Halflife [1]: >40 min; EC50 (pJNK in 3T3 WT cells): > 10000 nM; activity in ICW in 3T3 cells (pJNK in 3T3 WT cells): inactive; Halflife [2]: >40 min; Halflife [3]: >40 min; Halflife [4]: >40 min; Halflife ([4]; listed as PCM76): more than 40 min; Halflife [5]: >40 min |
| C=CC(=O)Nc1cc(C(=O)N(C)C)cc(-c2n[nH]c3ccccc23)c1 [PCM549] | – | – | – | – | – | – | – | – | – | – | EC50 (pJNK in 3T3 WT cells): > 10000 nM |
| C=CC(=O)N[C@@H]1CCCN(c2[nH]nc3ccccc23)C1 [PCM532] | – | – | – | – | – | – | – | – | – | > 10000 nM | activity in ICW in 3T3 cells (pJNK in 3T3 WT cells): inactive |
| C=CC(=O)NC1CCC(c2nc(-c3ccccc3)n[nH]2)CC1 (centres unmarked) [GO2] | > 10000 nM | – | – | – | – | – | – | – | – | – | – |
| C=CC(=O)Nc1cccc2[nH]ncc12 [GO1] | > 10000 nM | – | – | – | – | – | – | – | – | – | – |
| COc1cc(OC)cc(C(C#N)(CCCN(C)CCc2ccc(OC)c(OC)c2)C(C)C)c1 (centres unmarked) [REF1250, reference compound] | – | 2% and 1% | 7 min | 3% and 1% | 8 min | 0% | 5% and 3% | 9 min | 12% and 5% | – | Halflife [1]: 6 min; Halflife [2]: 6 min; half-life [3]: < 5 min; half-life [5]: 12 min |
| C=CC(=O)Nc1cccc(-c2n[nH]c3c2CNCC3)c1 [GO64] | 2460 nM | – | – | – | – | – | – | – | – | > 10000 nM | – |

The next lines start with results.

| IC50 (MKK7) | % remaining @ 40 min [1] | half-life [1] | % remaining @ 40 min [2] | half-life [2] | % remaining @ 40 min [3] | % remaining @ 40 min [4] | half-life [4] | % remaining @ 40 min [5] | Structure (SMILES) | EC50 (pJNK in HEK293 cells) | also measured |
| --- | --- | --- | --- | --- | --- | --- | --- | --- | --- | --- | --- |
| 30 nM | – | – | – | – | – | – | – | – | C#CCCCC(=O)N1CCc2[nH]nc(-c3cccc(NC(=O)C=C)c3)c2C1 [GO65] | – | – |
| 502 nM | – | – | – | – | – | – | – | – | C=CC(=O)Nc1ccc(N2CCNC2=O)cc1 [GO5] | – | – |
| 64 nM | 4% | 8 min | 40% | 29 min | 0% | 13% | 13 min | 6% | C=CC(=O)Nc1cccc(-c2n[nH]c3c2COCC3)c1 [GO55] | > 10000 nM | half-life [3]: < 5 min; half-life [5]: 9 min |
| 193 nM | – | – | – | – | – | – | – | – | C=CC(=O)Nc1cccc(-c2n[nH]c3c2CN(C(=O)OC(C)(C)C)CC3)c1 [GO61] | > 10000 nM | – |
| 10 nM | 18% | 11 min | 4% | 8 min | 1% | 20% | 16 min | 1% | C=CC(=O)Nc1cccc(-c2n[nH]c3c2CC(C)(C)CC3)c1 [GO54] | 3300 nM | half-life [3]: 5 min; half-life [5]: 6 min |
| 4 nM | 0% | < 5 min | 2% | 7 min | 0% | 0% | < 5 min | 0% | C=CC(=O)Nc1cccc(-c2n[nH]c3c(F)cccc23)c1 [GO88] | 1800 nM | half-life [3]: < 5 min; half-life [5]: < 5 min |
| 27 nM | – | – | – | – | – | – | – | – | C=CC(=O)Nc1cccc(-c2n[nH]c3c([N+](=O)[O-])cccc23)c1 [GO29] | > 10000 nM | – |
| 11 nM | – | – | – | – | – | – | – | – | C=CC(=O)Nc1cccc(-c2n[nH]c3cc(-c4ccccc4)ccc23)c1 [GO101] | 1000 nM | – |
| 4 nM | 0% | < 5 min | 0% | < 5 min | 0% | 0% | < 5 min | 0% | C=CC(=O)Nc1cc(C#N)cc(-c2n[nH]c3ccccc23)c1 [GO73] | – | half-life [3]: < 5 min; half-life [5]: < 5 min |
| 73 nM | – | – | – | – | – | – | – | – | C=CC(=O)Nc1cccc(-c2n[nH]c3c2CCC3)c1 [GO49] | – | – |
| 26 nM | 0% | < 5 min | 0% | < 5 min | 0% | 11% | 12 min | 0% | C=CC(=O)Nc1cc(-c2n[nH]c3ccccc23)ccc1C [GO72] | 4200 nM | half-life [3]: < 5 min; half-life [5]: < 5 min |
| 873 nM | – | – | – | – | – | – | – | – | C=CC(=O)Nc1ccc2c(c1)C(=O)NC2 [GO7] | – | – |
| 812 nM | – | – | – | – | – | – | – | – | C=CC(=O)Nc1cccc(-c2n[nH]c3c(C)cccc23)c1 [GO81] | – | – |
| 5 nM | 0% | < 5 min | 17% | 16 min | 0% | 0% | < 5 min | 0% | C=CC(=O)Nc1cccc(-c2n[nH]c3cc(Cl)ccc23)c1 [GO106] | 3000 nM | half-life [3]: < 5 min; half-life [5]: < 5 min |
| 267 nM | – | – | – | – | – | – | – | – | CN(C)C/C=C/C(=O)Nc1cccc(-c2n[nH]c3ccccc23)c1 [GO74] | – | – |
| 11 nM | 0% | 5 min | 48% | 35 min | 0% | 1% | < 5 min | 0% | C=CC(=O)Nc1cccc(-c2n[nH]c3cc(OC)ccc23)c1 [GO83] | – | half-life [5]: < 5 min |
| 47 nM | 0% | < 5 min | 1% | 6 min | 0% | 3% | 8 min | 0% | C=CC(=O)Nc1cccc(-c2n[nH]c3c(Cl)cccc23)c1 [GO89] | – | half-life [3]: < 5 min |
